Test results from US6723708B2, “Use of lithium (Li+) for the preparation of a composition for transfection of a polynucleotide into a cell and compositions useful in gene therapy” (Transgene S.A., priority 1999, dated 2004).

Tested on: tibialis anterior muscles
Experiment: Intramuscular transfection of plasmid pTG11033 with LiCl, luciferase activity in muscle extracts
Assay type: in vivo, C57BL/10 mice
Conditions: pTG11033 25 μg/muscle intramuscular with LiCl 0.1, 1, 10 mM; measured 7 days after injection; versus NaCl 0.9% control
Description: Plasmid DNA (pTG11033: CMV promoter, β-globin intron, luciferase cassette—WO 98/34910) was prepared according to Bischoff et al., Analytical Biochemistry 254 (1997), 69-81. Prior to intramuscular injection the tested molecules were mixed with the plasmid DNA preparation. 25 μg of plasmid DNA were injected per muscle into 5 to 10 week-old C57BL/10 mice. The 2 tibialis anterior (right and left) muscles were injected (each muscle was considered as a sample). Furthermore, for each condition, both the lowest and highest luciferase acitvity values were omitted, which means number of sample per condition=(2×number of mice per condition)−2.
One week after injection of the composition, the mice were killed and the tibialis anterior muscles were retrieved and frozen. Luciferase activity was quantified on whole muscle extracts using a conventional measurement kit (Luciferase Assay System, Promega). Briefly, muscles were ground separately and diluted in 200 μl of reporter lysis buffer (Promega). 10 μl-samples were placed in 96 well-plates and mixed with 100 μl of substrate. Luciferase activity was expressed as number of RLU emitted per minute, per mg of protein.
Protein was measured on 10 μl samples using a VCA Protein Assay kit (Pierce).
In this example, the stock solution of plasmid pTG11033 was prepared in TE buffer (Tris 10 mM—EDTA 1 mM) at a nucleic acid concentration of […]. […]

## [Cl-].[Li+] [LiCI, lithium chloride]
  increase of luciferase activity in the injected muscles: around 5 times
